Data reported in patent US20110319338A1, “PEPTIDES THAT BIND EUKARYOTIC TRANSLATION INITIATION FACTOR 4E” (The Board of Regents of the University of Texas System, priority 2008, published 2011).
Entries after “also recorded” stand apart in the source; their conditions may differ. Square brackets hold non-standard residues; d marks the D form. Peptide text beside a SMILES is read from it. pGlu = O=C1CC[C@@H](C(=O)O)N1

Experiments:
[1] = Peptide stability in serum and in culture medium (Western blot, MALDI TOF); type: in vitro ADME; details: human, serum (undiluted, of an ovarian cancer patient), 37° C.
Method: FIGS. 6A-6B. Stability of [DLys6]GnRH-4EBP1 peptide. Biotinylated peptide was added to McCoys' 5A medium containing 10% fetal bovine serum (FBS), and to human serum. Samples were immediately withdrawn (0 hours). The remaining mixtures were incubated at 37° C., and samples taken thereafter at 1, 3, 6, 12 and 24 hours. In (FIG. 6A), samples were analyzed by Western blot using horseradish peroxidase-conjugated strepatavidin. In (FIG. 6B), samples of peptide incubated in serum for 0, 12 and 24 hours were analyzed by Matrix Assisted Laser Desorption Ionization-Time of Flight (MALDI TOF) mass spectrometry. Peaks corresponding to intact peptide (mass: 3990) are indicated. Peaks of 1256, 1684 and 3384 in mass are likely to represent degradation products of the peptide.
Peptide stability studies. Biotinylated peptide (7 micrograms) was mixed with McCoys' 5A medium containing 10% FBS in a final volume of 140 microliters. A sample of 20 microliters was immediately removed and frozen. The remaining mixture was incubated at 37° C., and 20 microliters samples taken thereafter at 1, 3, 6, 12 and 24 hours. […] Samples were analyzed by Western blot using horseradish peroxidase-conjugated strepatavidin, and by MALDI TOF mass spectrometry using an Applied Biosystems 4700 Proteomic Analyzer.

[2] = tested on: ES-2-GFP cells; experiment: Mouse i.p. xenograft model of epithelial ovarian cancer; type: in vivo; details: for Deaths (died before completing treatment regimen) / Drop-outs (euthanized prior to completion due to morbidity related to ascites accumulation): of 11 mice per group
Method: FIGS. 4A-4C. Anti-tumor activity of [DLys6]GnRH-4EBP1-WT peptide in a xenograft model of EOC. Female nude mice were inoculated i.p. with one million ES-2-GFP cells. At Day 9 after tumor cell inoculation, one group of mice (n=5) was sacrificed (pre-treatment). At Day 9, other groups of mice were administered by i.p. injection with saline (n=11), [DLys6]GnRH (n=11) or [DLys6]GnRH-4EBP1-WT (n=11) at a dose of 3.0 nanomoles per gram body weight Saline or peptide was administered every 2 days thereafter for 11 days (6 doses in total), and mice were sacrificed on Day 20. (FIG. 4A) Visualization under a fluorescence stereoscope of i.p. tumors in pre-treatment mice (at Day 9) including implants on the omentum (ome), and in mice treated with saline, with agonist alone and with [DLys6]GnRH-4EBP1-WT (at Day 20). (FIG. 4B) Hematoxylin eosin-stained sections of tissues of pre-treatment mice (at Day 9) and of saline- and peptide-treated mice (at Day 20). Tumors attached to the omentum extensively involved the pancreas in saline- and agonist-treated mice. Also shown are tumors attached to the broad ligament and mesentery. Bar, 200 micrometers. (FIG. 4C) Quantification of i.p. tumor burden in pre-treatment and treated mice that completed the regimen, expressed as the average percent of area of fluorescence within the abdominal cavity in captured images, and volume of ascites. Median values of tumor burden and ascites volume for each group and statistical significance of differences between groups are indicated.
(§1) Animal Studies. Animal studies were approved by the Institutional Animal Care and Use Committee. The ES-2 cell line stably expressing enhanced green fluorescent protein (ES-2-GFP) has been described in previous work (Hara et al., 2007). Four-week-old female nude mice were inoculated i.p. at one site in the lower abdomen with 10^6 ES-2-GFP cells. At Day 9 after tumor cell inoculation, one group of mice (n=5) were killed by CO2 asphyxiation. At Day 9, other groups of mice were administered by i.p. injection with 200 microliters of phosphate-buffered saline (PBS) (n=11), [DLys6]GnRH (n=11) or [DLys6]GnRH-4EBP1-WT peptide (n=11) at a dose of 3.0 nanomoles per gram body weight. Peptides were suspended in PBS and administered at a volume of 200 microliters. PBS or peptide was administered every 2 days thereafter for 11 days (6 doses in total). Mice were sacrificed on Day 20, and ascites harvested. Tumors were visualized under a Leica MZML III fluorescence stereomicroscope equipped with mercury lamp power supply and green fluorescent protein (GFP) filter set. Tumor burden was quantified by measuring areas of fluorescence signals within the abdominal cavity in captured images by using Image Pro Plus 5.0 software (Media Cybernetics, Bethesda, Md.). Slides of paraffin-embedded tissues collected from mice were stained with hematoxylin-eosin. TUNEL-staining of tissue sections was performed using the in situ cell death detection kit (Roche).
To determine the efficacy of [DLys6]GnRH-4EBP1-WT peptide in vivo, a mouse i.p. xenograft model was used that was established from an ES-2 cell line stably expressing GFP (Hara et al., 2007). This model mimics the typical behavior of epithelial ovarian cancer, including i.p. dissemination and ascites formation. This example comprised three treatment groups of mice i) saline, ii) [DLys6]GnRH agonist, and iii) [DLys6]GnRH-4EBP1-WT, where sample size of each group was n=11. The first dose of peptide or saline was administered i.p. to mice at Day 9 after tumor cell inoculation. At Day 9, no ascites had yet formed but tumors had established on the omentum, broad ligament and mesentery which are common sites of ovarian cancer cell attachment (FIGS. 4A,B). A schedule in which peptide was administered every 2 days was chosen, based on the studies of peptide stability in serum (FIG. 6).
Based on studies of other agonist conjugates in xenograft models (19-21), a peptide dose of 3.0 nanomoles per gram body weight was used. […]

[3] = Tolerability in xenograft mice: observation, histology and TUNEL-staining of tissues; type: in vivo
From the text: FIGS. 11A-11B. TUNEL-staining of tissues of saline- and peptide-treated mice. […] Shown are normal tissues of the brain, heart, lung, liver, breast, pancreas and ovary, and tumor implants on the omentum. Bar, 60 micrometers. Pancreatic and ovarian sections show normal pancreatic (P) and ovarian (O) tissues plus adjacent tumor (T). Also shown are normal tissues of the pituitary and bone marrow. Bar, 20 micrometers
as §1

[4] = Mouse serum antibody assays; type: in vivo, mice; details: serum 1:100 dilution
Method: FIGS. 12A-12C. Serum luteinizing hormone (LH) levels and serum antibody reactivity.
Mouse serum antibody assays. Wells in 96-well plates were coated with 50 nanograms of [DLys6]GnRH-4EBP1-WT peptide or with 100 nanograms of ES-2 cell lysate. Serum of saline- and peptide-treated mice (1:100 dilution) was incubated in wells for 2 hours at room temperature. Bound IgG was detected using horseradish peroxidase-conjugated goat anti-mouse IgG, and measured at an optimal density of 450 nm.

[5] = tested on: luteinizing hormone (LH); experiment: Assay of serum LH levels by radioimmunoassay; details: serum collected at end of regimen (Day 20)

SMILES: CC[C@H](C)[C@H](NC(=O)[C@H](CCCNC(=N)N)NC(=O)[C@@H](NC(=O)CNC(=O)CNC(=O)[C@@H]1CCCN1C(=O)[C@H](CCCNC(=N)N)NC(=O)[C@H](CC(C)C)NC(=O)[C@@H](CCCCN)NC(=O)[C@H](Cc1ccc(O)cc1)NC(=O)[C@H](CO)NC(=O)[C@H](Cc1c[nH]c2ccccc12)NC(=O)[C@H](Cc1c[nH]cn1)NC(=O)[C@@H]1CCC(=O)N1)[C@@H](C)O)C(=O)N[C@H](C(=O)N[C@@H](Cc1ccc(O)cc1)C(=O)N[C@@H](CC(=O)O)C(=O)N[C@@H](CCCNC(=N)N)C(=O)N[C@@H](CCCCN)C(=O)N[C@@H](Cc1ccccc1)C(=O)N[C@@H](CC(C)C)C(=O)N[C@@H](CCSC)C(=O)N[C@@H](CCC(=O)O)C(=O)N[C@@H](CS)C(=O)N[C@@H](CCCNC(=N)N)C(=O)N[C@@H](CC(N)=O)C(=O)N[C@@H](CO)C(=O)N1CCC[C@H]1C(=O)N[C@H](C(=O)N[C@H](C(=O)O)[C@@H](C)O)C(C)C)[C@@H](C)CC [[DLys6]GnRH-4EBP1-WT] ([pGlu]HWSY[dK]LRPGGTRIIYDRKFLMECRNSPVT-OH)
- half-life [1]: 5 to 6 h
- Mice euthanized, day ([2]; drop-out mice, individual animals): n = 1, day 15; also recorded: n = 1, day 17
- day of death before completing treatment regimen ([2]; mouse, in vivo): 19 days
- Deaths (died before completing treatment regimen) [2]: 1
- Drop-outs (euthanized prior to completion due to morbidity related to ascites accumulation) [2]: 2
- Deaths (died before completing treatment regimen) ([2]; listed as [DLys6]GnRH-4EBP-WT): one
- Drop-outs (euthanized prior to completion due to morbidity related to ascites accumulation) ([2]; listed as [DLys6]GnRH-4EBP-WT): two
- TUNEL-positive cells in other normal tissues (brain, heart, lung and bone marrow) ([3]; Day 20): not detected
- TUNEL-staining in ovaries ([3]; Day 20): some staining was observed
- TUNEL-staining of cells of the liver and pancreas ([3]; Day 20): TUNEL-negative
- TUNEL-staining in breast and pituitary tissues ([3]; Day 20, tissues that express GnRH-RI): No TUNEL-staining was detected
- mice with antibody reactivity to [DLys6]GnRH-4EBP1-WT at least two standard deviations above mean background in saline-treated mice [4]: 2 of 8
- serum LH levels compared with saline-treated mice [5]: not significantly different
